Measured values reported in patent US10654807B2, “Toll-like receptor 8 agonists” (The University Of Kansas, priority 2013, dated 2020).
“Also recorded” adds a separate entry of the source.

Target: T1, human TLR8 (Homo sapiens, UniProt Q9NR97)
T1 construct: HEK293 cells stably co-transfected with the appropriate hTLR, MD2, and secreted alkaline phosphatase (sAP); expressed in transfected cells; host or cells: HEK293 (HEK-Blue™)
T1 sequence (Q9NR97 27-1041): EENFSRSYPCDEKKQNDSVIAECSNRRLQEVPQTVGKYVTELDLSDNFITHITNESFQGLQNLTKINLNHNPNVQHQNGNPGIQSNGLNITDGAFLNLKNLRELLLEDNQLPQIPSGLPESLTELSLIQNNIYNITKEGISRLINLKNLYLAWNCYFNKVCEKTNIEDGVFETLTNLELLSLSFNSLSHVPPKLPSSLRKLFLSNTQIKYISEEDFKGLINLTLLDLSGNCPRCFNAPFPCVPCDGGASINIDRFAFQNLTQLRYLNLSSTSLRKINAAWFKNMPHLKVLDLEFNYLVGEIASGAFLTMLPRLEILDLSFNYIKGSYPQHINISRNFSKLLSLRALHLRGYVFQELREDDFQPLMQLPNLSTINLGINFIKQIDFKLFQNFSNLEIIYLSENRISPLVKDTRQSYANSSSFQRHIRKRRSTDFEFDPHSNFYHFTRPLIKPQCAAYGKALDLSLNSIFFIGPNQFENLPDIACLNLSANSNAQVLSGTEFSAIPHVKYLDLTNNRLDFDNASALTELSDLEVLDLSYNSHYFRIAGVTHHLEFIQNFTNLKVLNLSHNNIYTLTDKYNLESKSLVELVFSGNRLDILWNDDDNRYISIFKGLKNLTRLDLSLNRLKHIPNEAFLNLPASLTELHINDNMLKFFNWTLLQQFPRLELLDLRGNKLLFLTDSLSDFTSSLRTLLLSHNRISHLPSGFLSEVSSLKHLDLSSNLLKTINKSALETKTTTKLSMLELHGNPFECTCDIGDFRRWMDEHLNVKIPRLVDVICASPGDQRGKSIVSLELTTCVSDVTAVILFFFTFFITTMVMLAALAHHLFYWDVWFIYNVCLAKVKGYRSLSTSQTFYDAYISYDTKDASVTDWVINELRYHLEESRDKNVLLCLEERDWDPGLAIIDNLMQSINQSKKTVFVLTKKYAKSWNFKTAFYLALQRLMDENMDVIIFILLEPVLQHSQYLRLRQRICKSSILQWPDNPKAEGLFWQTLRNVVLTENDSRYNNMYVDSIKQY
Experiment: human TLR8-specific HEK-Blue reporter gene assay (NF-κB induction)
Assay type: cell-based
Details: TLR8 primary screen
Source text: (§1) Human TLR2/-3/-4/-5/-7/-8/-9 Reporter Gene Assays (NF-κB Induction):
(§2) The induction of NF-κB was quantified using human TLR2/-3/-4/-5/-7/-8/-9-specific HEK-Blue™ reporter gene assays as previously described. HEK293 cells stably co-transfected with the appropriate hTLR, MD2, and secreted alkaline phosphatase (sAP), were maintained in HEK-Blue™ Selection medium containing zeocin and normocin. Stable expression of secreted alkaline phosphatase (sAP) under control of NF-κB/AP-1 promoters is inducible by appropriate TLR agonists, and extracellular sAP in the supernatant is proportional to NF-κB induction.

| TLR8 agonistic activity | SMILES |
| --- | --- |
| inactive | Nc1nc2ccccc2c2ccoc12 [Compound A8a, furo[2,3-c]quinolin-4-amine] |
| lower agonistic potencies | Cc1cc2c(o1)c(N)nc1ccccc12 [Compound A8b, 2-methylfuro[2,3-c]quinolin-4-amine] |
| lower agonistic potencies | CCCc1cc2c(o1)c(N)nc1ccccc12 [Compound A8c, 2-propylfuro[2,3-c]quinolin-4-amine] |
| lower agonistic potencies | CCCCCc1cc2c(o1)c(N)nc1ccccc12 [Compound A8e, 2-pentylfuro[2,3-c]quinolin-4-amine] |
| lower agonistic potencies | CCCCCCc1cc2c(o1)c(N)nc1ccccc12 [Compound A8f, 2-hexylfuro[2,3-c]quinolin-4-amine] |
| inactive | Nc1nc2ccccc2c2cc(-c3ccccc3)oc12 [Compound A8n, 2-phenylfuro[2,3-c]quinolin-4-amine] |
| inactive | Nc1nc2ccccc2c2cc(Cc3ccccc3)oc12 [Compound A8o, 2-benzylfuro[2,3-c]quinolin-4-amine] |
| do not display TLR8 agonism | Nc1nc2ccccc2c2cc(CCCO)oc12 [Compound A8r, 3-(4-aminofuro[2,3-c]quinolin-2-yl)propan-1-ol] |
| do not display TLR8 agonism | CC(C)CC(O)c1cc2c(o1)c(N)nc1ccccc12 (centres unmarked) [Compound A8u, 1-(4-aminofuro[2,3-c]quinolin-2-yl)-3-methylbutan-1-ol] |
| do not display TLR8 agonism | CC(O)Cc1cc2c(o1)c(N)nc1ccccc12 (centres unmarked) [Compound A8v, 1-(4-aminofuro[2,3-c]quinolin-2-yl)propan-2-ol] |
| inactive | CCCCc1cc2c(nc(N)c3ccccc32)o1 [Compound A18, 2-butylfuro[2,3-c]isoquinolin-5-amine] |

| SMILES | TLR8 agonistic activity |
| --- | --- |
| CCCc1cc2ccnc(N)c2o1 [Compound A28a, 2-propylfuro[2,3-c]pyridin-7-amine] | retained TLR8-selective agonistic activities; also recorded: feeble activity |
| CCCCc1cc2ccnc(N)c2o1 [Compound A28b, 2-butylfuro[2,3-c]pyridin-7-amine] | retained TLR8-selective agonistic activities; also recorded: feeble activity |

Same assay, conditions: cell-based TLR8-specific NF-κB transactivation assay; read-out: TLR8 agonistic potency EC50

| EC50 [µM] | SMILES |
| --- | --- |
| 24.4 | CCCc1cc2ccnc(N)c2o1 [Compound A28a, 2-propylfuro[2,3-c]pyridin-7-amine] |
| 46.2 | CCCCc1cc2ccnc(N)c2o1 [Compound A28b, 2-butylfuro[2,3-c]pyridin-7-amine] |

Same assay, conditions: human TLR8-specific reporter gene assays, Table 1

| Agonistic Activity EC50 (μM) TLR8 | SMILES |
| --- | --- |
| Inactive | CCCCCCc1cc2ccccc2nc1N [Compound 14c, 3-Hexylquinolin-2-amine] |
| Inactive^a | CCCCCc1c(N)nc2ccccc2c1C [Compound 21a, 4-Methyl-3-pentylquinolin-2-amine] |
| Inactive | CCCCCc1c(N)nc2ccccc2c1CC [Compound 21b, 4-Ethyl-3-pentylquinolin-2-amine] |
| Inactive | CCCCCc1c(N)nc2ccccc2c1CCC(C)C [Compound 21c, 4-Isopentyl-3-pentylquinolin-2-amine] |
| Inactive | CCCCOc1cc(N)nc2ccccc12 [Compound 24a, 4-(Butyloxy)quinolin-2-amine] |
| Inactive | CCCCCOc1cc(N)nc2ccccc12 [Compound 24b, 4-(Pentyloxy)quinolin-2-amine] |
| Inactive | CCCCc1cc(N)nc2ccccc12 [Compound 27a, 4-Butylquinolin-2-amine] |
| Inactive | CCCCCc1cc(N)nc2ccccc12 [Compound 27b, 4-Pentylquinolin-2-amine] |

Same assay, conditions: human TLR8-specific reporter gene assays, Table 1; read-out: Agonistic Activity EC50 (μM) TLR8

| EC50 [µM] | SMILES |
| --- | --- |
| 2.18 | CCCCOc1cc2ccccc2nc1N [Compound 6, 3-(Butyloxy)quinolin-2-amine] |
| 7 | CCCCCOc1cc2ccccc2nc1N [Compound 6d, 3-(Pentyloxy)quinolin-2-amine] |
| 50 | CCCCCCOc1cc2ccccc2nc1N [Compound 6e, 3-(Hexyloxy)quinolin-2-amine] |
| 50 | CC(C)COc1cc2ccccc2nc1N [Compound 6g, 3-(Isobutyloxy)quinolin-2-amine] |
| 50 | CC(C)CCOc1cc2ccccc2nc1N [Compound 6h, 3-(Isopentyloxy)quinolin-2-amine] |
| 4.28 | CCCCNc1cc2ccccc2nc1N [Compound 9, N^3-Butylquinoline-2,3-diamine] |
| 2.67 | CCC/C=C/c1cc2ccccc2nc1N [Compound 14d, (E)-3-(Pent-1-en-1-yl)quinolin-2-amine] |
| 13 | CCCC#Cc1cc2ccccc2nc1N [Compound 14f, 3-(Pent-1-yn-1-yl)quinolin-2-amine] |

Test system: human TLR2, TLR3, TLR4, TLR5, TLR7, TLR9, TLR10, Nod1 and Nod2
Experiment: counter-screens in reporter cell lines specific for other human TLRs and Nod1/2
Assay type: cell-based
Details: not given

| SMILES | activity in counter-screens / specificity for human TLR8 |
| --- | --- |
| CCCCOc1cc2ccccc2nc1N [Compound 6, 3-(Butyloxy)quinolin-2-amine] | specific for human TLR8 |
| CCCCNc1cc2ccccc2nc1N [Compound 9, N^3-Butylquinoline-2,3-diamine] | specific for human TLR8 |
| CCCCSc1cc2ccccc2nc1N [Compound 12, 3-(Butylthio)quinolin-2-amine] | specific for human TLR8 |

Test system: human peripheral blood mononuclear cells
Experiment: cytokine/chemokine induction in human PBMCs (multiplexed bead array immunoassays)
Assay type: cell-based
Details: 41-analyte multiplexed assay, human PBMCs, FIG. 9
Procedure: Immunoassays for Cytokines:
Fresh human peripheral blood mononuclear cells (hPBMC) were isolated from human blood obtained by venipuncture with informed consent and as per institutional guidelines on Ficoll-Hypaque gradients. Aliquots of PBMCs (10^5 cells in 100 μL/well) were stimulated for 12 h with graded concentrations of test compounds. Supernatants were isolated by centrifugation, and were assayed in triplicates using analyte-specific multiplexed cytokine/chemokine bead array assays. PBMC supernatants were also analyzed for 41 chemokines and cytokines (EGF, Eotaxin, FGF-2, Fit-3 ligand, Fractalkine, G-CSF, GM-CSF, GRO, IFN-α2, IFN-γ, IL-10, IL-12 (p40), IL-12 (p70), IL-13, IL-15, IL-17, IL-1ra, IL-1α, IL-1β, IL-2, IL-3, IL-4, IL-5, IL-6, IL-7, IL-8, IL-9, IP-10, MCP-1, MCP-3, MDC (CCL22), MIP-1α, MIP-1β, PDGF-AA, PDGF-AB/BB, RANTES, TGFα, TNF-α, TNF-β, VEGF, sCD40L) using a magnetic bead-based multiplexed assay kit (Milliplex MAP Human Cytokine/Chemokine kit). Data were acquired and processed on a MAGPIX instrument (EMD Millipore, Billerica, Mass.) with an intra-assay coefficients of variation ranging from 4-8% for the 41 analytes.

| SMILES | induction of G-CSF, GRO, MIP-1α and MIP-1β |
| --- | --- |
| CCCCc1nc2c(N)nc3ccccc3c2n1Cc1ccccc1 [1-benzyl-2-butyl-1H-imidazo[4,5-c]quinolin-4-amine] | did not |

Same assay, conditions: human PBMCs as well as whole human blood, FIGS. 3A-3T

| SMILES | cytokine/chemokine induction profile |
| --- | --- |
| CCCCCc1cc2ccccc2nc1N [Compound 14b, 3-Pentylquinolin-2-amine] | induction of a specific set of chemokines and proinflammatory cytokines, including interleukins 12 and 18 |

Test system: whole human blood
Experiment: proinflammatory cytokine induction in human blood
Assay type: cell-based
Details: FIGS. 6A-6D, Compound 2 as reference

| SMILES | induction of TNF-α, IL-1β, IL-6 and IL-8 |
| --- | --- |
| CCCCc1cc2c(o1)c(N)nc1ccccc12 [Compound A8d, 2-butylfuro[2,3-c]quinolin-4-amine] | induce TNF-α, IL-β, IL-6 and IL-8 in a dose-dependent manner, albeit with a lower potency than Compound 2 |

Test system: human natural killer cells
Experiment: CD69 upregulation by flow cytometry in whole human blood
Assay type: cell-based
Details: 16.5 h, FIG. 8
Procedure: Flow-Cytometric Immunostimulation Experiments:
CD69 upregulation was determined by flow cytometry. Briefly, heparin-anticoagulated whole blood samples were obtained by venipuncture from healthy human volunteers with informed consent and as per guidelines approved by the University of Kansas Human Subjects Experimentation Committee. […] Negative (endotoxin free water) controls were included in each experiment. Following incubation, 200 μL aliquots of anticoagulated whole blood were stained with 20 µL of fluorochrome-conjugated antibodies at 37° C. in the dark for 30 min. For triple color flow cytometry experiments, CD3-PE, CD56-APC, CD69-PE-Cy7 were used to analyze CD69 activation of each of the main peripheral blood lymphocyte populations: natural killer lymphocytes (NK cells: CD3^−CD56^+), cytokine-induced killer phenotype (CIK cells: CD3^+CD56^+), nominal B lymphocytes (CD3^−CD56^−), and nominal T lymphocytes (CD3^+CD56^−). Following staining, erythrocytes were lysed and leukocytes fixed in one step by mixing 200 μL of the samples in 4 mL pre-warmed Whole Blood Lyse/Fix Buffer (Becton-Dickinson Biosciences, San Jose, Calif.). After washing the cells twice at 200 g for 8 minutes in saline, the cells were transferred to a 96-well plate. […]

| SMILES | CD69 expression on natural killer lymphocytes |
| --- | --- |
| CCCCc1cc2c(o1)c(N)nc1ccccc12 [Compound A8d, 2-butylfuro[2,3-c]quinolin-4-amine] | absence of natural killer lymphocyte activation; also recorded: absence of CD69 upregulation |

Test system: human ex vivo blood
Experiment: not given
Details: transcriptomal profiling

| SMILES | IFN-α transcription | induction of proinflammatory cytokine transcripts |
| --- | --- | --- |
| CCCCc1cc2c(o1)c(N)nc1ccccc12 [Compound A8d, 2-butylfuro[2,3-c]quinolin-4-amine] | induced only by Compound 2 | strong induction of proinflammatory cytokine transcripts (including IL-12 and IL-18) |

Test system: TLR7/TLR8
Experiment: not given
Details: background statement; cited from earlier work

| SMILES | TLR7/TLR8 agonism profile described |
| --- | --- |
| CCCN(CCC)C(=O)C1=Cc2ccc(-c3ccc(C(=O)N4CCCC4)cc3)cc2N=C(N)C1 [VTX-2337] | mixed TLR7/TLR8-agonism |

Test system: human TLR2/3/4/5/7/8/9 and NOD1/2
Experiment: primary screens: panel of reporter gene assays for TLR and NOD modulatory activities
Details: human TLR2/3/4/5/7/8/9 and NOD1/2 reporter gene assays
Source text: as §1, §2

| SMILES | activity in primary screens (reporter gene panel) |
| --- | --- |
| CCOCCc1cc2c(o1)c(N)nc1ccccc12 [Compound A8w, 2-(2-ethoxyethyl)furo[2,3-c]quinolin-4-amine] | none of these compounds were active in any primary screens |
| NCc1cc2c(o1)c(N)nc1ccccc12 [Compound A8x, 2-(aminomethyl)furo[2,3-c]quinolin-4-amine] | none of these compounds were active in any primary screens |
| NCCc1cc2c(o1)c(N)nc1ccccc12 [Compound A8y, 2-(2-aminoethyl)furo[2,3-c]quinolin-4-amine] | none of these compounds were active in any primary screens |
